Data: patent US20040024055A1, “Pharmaceutical composition containing the exract of saururus chinensis baill useful as an anticancer agent and a process for the preparation thereof” (priority 2000, published 2004)

What was measured:
[1] = test system: cell line treated as in Experimental Example 1; assay: LDH analysis of remaining cell after NO detection; type: cell-based; conditions: 1% Triton treatment
Excerpt: The remaining cell after NO detection was identified as dead by measuring existence rate and necrosis rate through MTT analysis and LDH analysis.

[2] = Anticancer activity of sauristolactam separated from saururus; conditions: separated from saururus and crystallized

Row | Compound | LDH Analysis (necrosis rate) [1] [%] | anticancer activity [2]
1 | Triton X-100 | 100 | –
2 | COc1c(O)cc2c3c(cc4ccccc4c13)N(C)C2=O [sauristolactam] | – | no anticancer activity was detected
